Experiment [1] has as its system PGC-1α. Put plainly: In vitro PGC-1α expression in differentiated C2C12 cells (cell ELISA). It is filed as cell-based. Conditions: 1 mM. The procedure: Culture conditions: DMEM containing 25 mM glucose with 10% FBS supplementation; grown at 37° C. and 5% CO2.
Drugs: (+)Epicatechin, AICAR (direct activator of AMPK).
Assay Conditions: C2C12 cells were cultured in DMEM supplemented in 10% FBS up to 80% confluence. The cells were further trypsinized and seeded into a 96 well plate at a density of 5000 cells/well (well volume—100 μL) (Day 0). Following attachment, the cells were allowed to reach 80-90% confluence in the plate (typically 48 hours post seeding) and further differentiated using DMEM+2% Horse Serum (200 μL/well). The media was changed every day or at least every alternate day for 5 days to allow myoblasts to differentiate into myotubes. On day 7 (post seeding), the cells were treated with standards and test compounds for PGC-1 α assay.
PGC-1α assay: For the detection of PGC-1α, the cells were incubated with 0.5 μg/ml primary antibody (Merck, WH0010891M3) in PBS-T containing 5% BSA at 4° C. overnight. The cells were then washed three times with PBS-T for 5 minutes and incubated with 1:1000 dilution secondary antibody (Anti-rabbit IgG, HRP-linked Antibody, Cell Signaling) in PBS-T with 1% BSA for 1 hour at RT. Cells were washed three times with PBS-T for 5 minutes The cells were incubated with 100 μl TMB substrate solution for 30 minutes and the reaction was stopped with 100 μl of 2N H2SO4. […] (For plate optical density calculations, a background correction was taken at 540 nm). The final PGC-1α activation % is average of activation of 6 replicates.
(In general: An ELISA detects its analyte on a solid surface through an enzyme-linked reagent.)

In experiment [2] the target is T1, mitochondrial ATP synthase (Mus musculus, UniProt P56480+Q03265).
T1 construct: from tissue; host or cells: mouse heart, isolated mitochondria (fresh or frozen)
Put plainly: Maximal ATP hydrolysis capacity in frozen heart mitochondria. It is filed as biochemical. As to conditions: frozen heart mitochondria, different concentrations in the assay media. The procedure:
(§1) ATP hydrolysis capacity or state 4 acidification was measured using Seahorse XF96 as described in Divakaruni et al. (2018) Anal Biochem 552:60-65 and Acin-Perez et al. (2021) Life 11(9):949, in MAS (70 mM Sucrose, 220 mM Mannitol, 5 mM KH2PO4, 5 mM MgCl2, 1 mM EGTA, 2 mM HEPES; pH 7.2). Plates were loaded with 0.75-1.5 μg of mouse heart mitochondria, or 25 μg of cell lysate. Cell lysates were prepared by subjecting the samples to 4 cycles of free thaw (liquid nitrogen—37° C. water bath) before measuring protein concentration. When assessing compounds effect on respirometry, the compounds were added in MAS after sample centrifugation. Initial respiration of the samples was sustained by the addition of 5 mM succinate+2 μM rotenone in the MAS after centrifugation. Injections were performed at the following final concentration in the well: Antimycin A (2 μM), oligomycin (5 μM), FCCP (1 μM), ATP (20 mM). To assess maximal ATP concentration, ATP was injected consecutively.
An additional assay was developed to determine the maximal ATP hydrolysis capacity in frozen mitochondria. Maximal ATP hydrolytic capacity was assessed in frozen heart mitochondria where mitochondrial respiration is inhibited by Antimycin A and maximal ATP hydrolysis is driven by co-injection of FCCP and ATP, followed by inhibition in the presence of oligomycin.

Experiment [3] deals with T1, mitochondrial ATP synthase. Put plainly: ATP synthesis (oxygen consumption, Seahorse XF96) in fresh heart mitochondria. It is filed as biochemical. Conditions: fresh heart mitochondria (FIG. 1, FIG. 2). From the text:
(§2) To assess whether the fraction of synthetic and reverse hydrolytic activities of mitochondrial ATP synthase can be measured in the same preparation, a protocol was developed to monitor changes in oxygen consumption and proton release in response to changes in mitochondrial ATP synthase activity. The proton released and the concomitant changes in the pH can be monitored using the ECAR (extracellular acidification) channel in the Agilent Seahorse XF analyzer using isolated mitochondria, to ensure that the changes in pH cannot be attributed to glycolysis or other contributors to ECAR.
(§3) Mice were anesthetized with isoflurane followed by a cervical dislocation, and the heart was immediately removed and placed in ice cold relaxation buffer (5 mM sodium pyrophosphate, 100 mM KCl, 5 mM EGTA, 5 mM HEPES; pH 7.4). The heart was squeezed with tweezers to remove blood, minced with scissors, and then placed in a glass-glass Dounce homogenizer with 3 mL of HES homogenization buffer (250 mM sucrose, 5 mM HEPES, 1 mM EDTA; pH to 7.2, adjusted with KOH). The heart tissue was homogenized first with the loose pestle and followed by the tight pestle. The homogenized tissue was placed in a pre-chilled 15 ml conical tube and centrifuged at 900×g (4° C.) for 10 minutes (min). The supernatant was removed, placed in a new tube and centrifuged again at 900×g for 10 min. The supernatant was then transferred to 2 mL microcentrifuge tubes and centrifuged at 10,000×g (4° C.) for 10 min. The mitochondrial pellets were re-suspended in ice cold HES buffer and mitochondrial protein was measured with a BCA assay (Pierce). The concentrated mitochondrial pellet was stored on ice.
Heart mitochondria (0.75-1.5 μg) were loaded into a Seahorse XF96 microplate in 20 μL of MAS (70 mM Sucrose, 220 mM Mannitol, 5 mM KH2PO4, 5 mM MgCl2, 1 mM EGTA, 2 mM HEPES; pH 7.2) plus 1% free fatty acid BSA containing substrates. The loaded plate was centrifuged at 2,000×g for 5 min at 4° C. […]
Oxygen consumption was measured in isolated fresh intact mitochondria from mouse heart, as oxygen consumption is linked to maximal ATP synthesis and proton release when mitochondria are respiring either in the presence of substrates and ADP (ATP synthesizing mitochondria or state 3) or in the presence of substrates but not ADP (state 4). […]
OCR and ECAR were measured in a Seahorse XF96 analyzer under basal conditions as well as after injection of 2 μM oligomycin, two sequential additions of 1.5 μM FCCP, followed by 1 μM rotenone with 2 μM antimycin A. Respiratory parameters were calculated according to standard protocols, and all rates were corrected for non-mitochondrial respiration/background signal by subtracting the oxygen consumption rate insensitive to rotenone plus antimycin A.

In experiment [4] the target is T1, mitochondrial ATP synthase. Put plainly: ATP hydrolysis (proton release/ECAR, Seahorse XF96) in fresh heart mitochondria. It is filed as biochemical. As to conditions: fresh heart mitochondria (FIG. 1, FIG. 2).
From the text: as §2, §3
Heart mitochondria (0.75-1.5 μg) were loaded into a Seahorse XF96 microplate in 20 μL of MAS (70 mM Sucrose, 220 mM Mannitol, 5 mM KH2PO4, 5 mM MgCl2, 1 mM EGTA, 2 mM HEPES; pH 7.2) plus 1% free fatty acid BSA containing substrates. The loaded plate was centrifuged at 2,000×g for 5 min at 4° C. (no brake) and an additional 130 μL of MAS was added to each well. When assessing compounds effect on respirometry, the compounds were added at this point at the indicated concentration in MAS buffer. To avoid disrupting mitochondrial adherence to the bottom of the plate, MAS was added using a multichannel pipette pointed at a 45° angle to the top of the well-chamber, as instructed by the manufacturer. Substrate concentrations in the well when assay was starting in state 4 were as follow: (i) 5 mM pyruvate+5 mM malate or ii) 5 mM succinate+2 μM rotenone. Substrate concentrations in the well when assay was starting in state 3 were as follow: (i) 5 mM pyruvate+5 mM malate+4 mM ADP or ii) 5 mM succinate+2 μM rotenone+4 mM ADP. Injections were performed as indicated in the figure descriptions at the following final concentration in the well: oligomycin (3.5 μM), FCCP (4 μM), Antimycin A (2 μM). Compounds were added at the indicated concentration.
as §1, with “consecutively. […]” for “consecutively.”

For `NC(=O)c1ncn([C@@H]2O[C@H](CO)[C@@H](O)[C@H]2O)c1N` [AICAR, 5-aminoimidazole-4-carboxamide-1-β-D-ribofuranoside], the “% Activity (PGC-1α expression)” value in experiment [1] (Table 4, differentiated C2C12 cells, OD at 5 minutes) was found to be 128%; in experiment [1] (Table 5, differentiated C2C12, 5000 cells/well, DMSO = 100), 122%; in experiment [1] (Table 6, C2C12 cells, 5000 cells/well), 136%; in experiment [1] (Table 7, C2C12 cells, 5000 cells/well, DMSO = 100), 122%; in experiment [1] (Table 8, C2C12 cells, 5000 cells/well, DMSO = 100) it was 140%.

For the molecule `CC[C@H]1/C=C/C=C/C[C@@H](C)[C@H](O)[C@@](C)(O)C(=O)[C@@H](C)[C@H](O)[C@@H](C)C(=O)[C@@H](C)[C@H](O)[C@@H](C)/C=C/C(=O)O[C@@H]2[C@H](C)[C@H](CC1)O[C@]1(CC[C@H](C)[C@H](C[C@@H](C)O)O1)[C@H]2C` [Oligomycin, oligomycin, reference compound], the “inhibition of ATP hydrolysis” value in experiment [2] was “dose dependent inhibition”. Besides, the “change in ATP synthesis” value in experiment [3] is recorded as “worked as expected”. The “changes in ATP hydrolysis” value in experiment [4] was “worked as expected”.

Source of the values: US20240254135A1, “POLYPHENOL COMPOUNDS” (Epirium Bio Inc., priority 2022, published 2024).
